Here are results for 29 compounds from patent US20020026053A1, “Novel 3-(substituted) -2- indolinones compounds and use thereof as inhibitors of protein kinase activity” (priority 1997, published 2002).

This experiment has as its system FLK-1 receptor. In words: FLK-1 Assay (cellular/catalytic ELISA, VEGF-stimulated phosphotyrosine). In kind it is cell-based. Further details: concentration or dose not given beside the values. The method, then: The cellular/catalytic assays described herein are performed in an ELISA format. The general procedure is as follows: a compound is introduced to cells expressing the test kinase, either naturally or recombinantly, for a selected period of time after which, if the test kinase is a receptor, a ligand known to activate the receptor is added. The cells are lysed and the lysate is transferred to the wells of an ELISA plate previously coated with a specific antibody recognizing the substrate of the enzymatic phosphorylation reaction. Non-substrate components of the cell lysate are washed away and the amount of phosphorylation on the substrate is detected with an antibody specifically recognizing phosphotyrosine compared with control cells that were not contacted with a test compound.
An ELISA assay is conducted to measure the kinase activity of the FLK-1 receptor and more specifically, the inhibition or activation of TK activity on the FLK-1 receptor. Specifically, the following assay can be conducted to measure kinase activity of the FLK-1 receptor in cells genetically engineered to express Flk-1.
a. Corning 96-well ELISA plates (Corning Catalog No. 25805-96);
b. Cappel goat anti-rabbit IgG (catalog no. 55641);
c. PBS (Gibco Catalog No. 450-1300EB);
d. TBSW Buffer (50 mM Tris (pH 7.2), 150 mM NaCl and 0.1% Tween-20);
e. Ethanolamine stock (10% ethanolamine (pH 7.0), stored at 4° C.);
f. HNTG buffer (20 mM HEPES buffer (pH 7.5), 150 mM NaCl, 0.2% Triton X-100, and 10% glycerol);
g. EDTA (0.5 M (pH 7.0) as a 100× stock);
h. Sodium orthovanadate (0.5 M as a 100× stock);
i. Sodium pyrophosphate (0.2 M as a 100× stock);
j. NUNC 96 well V bottom polypropylene plates (Applied Scientific Catalog No. AS-72092);
k. NIH3T3 C7#3 Cells (FLK-1 expressing cells);
l. DMEM with 1× high glucose L-Glutamine (catalog No. 11965-050);
n. L-glutamine, Gibco (catalog no. 25030-016);
o. VEGF, PeproTech, Inc. (catalog no. 100-20)(kept as 1 μg/100 μl stock in Milli-Q dH2O and stored at −20° C.;
p. Affinity purified anti-FLK-1 antiserum;
q. UB40 monoclonal antibody specific for phosphotyrosine (see, Fendley, et al., 1990, Cancer Research 50:1550-1558);
r. EIA grade Goat anti-mouse IgG-POD (BioRad catalog no. 172-1011);
s. 2,2-azino-bis(3-ethylbenz-thiazoline-6-sulfonic acid (ABTS) solution (100 mM citric acid (anhydrous), 250 mM Na2HPO4 (pH 4.0), 0.5 mg/ml ABTS (Sigma catalog no. A-1888)), solution should be stored in dark at 4° C. until ready for use;
t. H2O2 (30% solution) (Fisher catalog no. H325);
u. ABTS/ H2O2 (15 ml ABTS solution, 2 μl H2O2) prepared 5 minutes before use and left at room temperature;
v. 0.2 M HCl stock in H2O;
w. dimethylsulfoxide (100%) (Sigma Catalog No. D-8418); and
y. Trypsin-EDTA (Gibco BRL Catalog No. 25200-049).
1. Coat Corning 96-well ELISA plates with 1.0 μg per well Cappel Anti-rabbit IgG antibody in 0.1M Na2CO3 pH 9.6. Bring final volume to 150 μl per well. Coat plates overnight at 4° C. Plates can be kept up to two weeks when stored at 4° C.
2. Grow cells in Growth media (DMEM, supplemented with 2.0 mM L-Glutamine, 10% FBS) in suitable culture dishes until confluent at 37° C., 5% CO2.
3. Harvest cells by trypsinization and seed in Corning 25850 polystyrene 96-well round bottom cell plates, 25,000 cells/well in 200 μl of growth media.
4. Grow cells at least one day at 37° C., 5% CO2.
5. Wash cells with D-PBS 1×.
6. Add 200 μl/well of starvation media (DMEM, 2.0 mM 1-Glutamine, 0.1% FBS). Incubate overnight at 37° C., 5% CO2.
7. Dilute Compounds 1:20 in polypropylene 96 well plates using starvation media. Dilute dimethylsulfoxide 1:20 for use in control wells.
8. Remove starvation media from 96 well cell culture plates and add 162 μl of fresh starvation media to each well.
9. Add 18 μl of 1:20 diluted compound dilution (from step 7) to each well plus the 1:20 dimethylsulfoxide dilution to the control wells (+/− VEGF), for a final dilution of 1:200 after cell stimulation. Final dimethylsulfoxide is 0.5%. Incubate the plate at 37° C., 5% CO2 for two hours.
10. […]
In general terms: In an ELISA, binding on a coated surface is turned into a signal by an enzyme label.

As to `CCn1c2ccccc2c2cc(C=C3C(=O)Nc4c(Br)cc(Br)c(C)c43)ccc21` [10731/H02], the “Flk Kinase % Inhibition (P.110)” value was 19.7%.
In the case of `Cc1cc2occ(C=C3C(=O)Nc4c(Br)cc(Br)c(C)c43)c(=O)c2cc1C` [10731/H03] it was 20.0%; in that of `C=C(C)C1CC=C(C=C2C(=O)Nc3c(Br)cc(Br)c(C)c32)CC1` (centres unmarked) [10731/H04], 16.4%; in that of `Cc1c(Br)cc(Br)c2c1C(=Cc1coc3ccc(C(C)C)cc3c1=O)C(=O)N2` [10731/H05], 23.6%.
Take `Cc1ccc2occ(C=C3C(=O)Nc4c(Br)cc(Br)c(C)c43)c(=O)c2c1` [10731/H06]: the “Flk Kinase % Inhibition (P.110)” value is given as 28.7%.
In the case of `Cc1c(Br)cc(Br)c2c1C(=Cc1coc3ccc([N+](=O)[O-])cc3c1=O)C(=O)N2` [10731/H07] it was 74.5%; in that of `Cc1c(Br)cc(Br)c2c1C(=Cc1c[nH]c(=O)[nH]c1=O)C(=O)N2` [10731/H08], 31.4%; in that of `COc1ccc2[nH]cc(C=C3C(=O)Nc4c(Br)cc(Br)c(C)c43)c2c1` [10731/H09], 15.8%.
In the case of `Cc1c(Br)cc(Br)c2c1C(=C1C(=O)N(C)c3ccccc31)C(=O)N2` [10731/H10], the “Flk Kinase % Inhibition (P.110)” value worked out at 25.9%.
In the case of `Cc1c(Br)cc(Br)c2c1C(=CC(c1cccs1)C(F)(F)F)C(=O)N2` (centres unmarked) [10732/H02] it was 9.1%.
In the case of `COc1c(C(C)C)cc(C=C2C(=O)Nc3c(Br)cc(Br)c(C)c32)cc1C(C)C` [10732/H03] it was 8.4%.
In the case of `Cc1c(Br)cc(Br)c2c1C(=Cc1cc(C(C)C)c(Oc3ccccc3)c(C(C)C)c1)C(=O)N2` [10732/H04] it was 4.9%; in that of `COc1ccc(C=C2C(=O)Nc3c(Br)cc(Br)c(C)c32)cc1C(C)(C)C` [10732/H05], 12.8%; in that of `Cc1c(Br)cc(Br)c2c1C(=Cc1ccc(OCc3ccccc3)c(C(C)(C)C)c1)C(=O)N2` [10732/H06], 22.6%.
Consider `COc1c(Br)cc(C=C2C(=O)Nc3c(Br)cc(Br)c(C)c32)cc1C(C)(C)C` [10732/H07], for which the “Flk Kinase % Inhibition (P.110)” value was determined as 9.7%.
In the case of `Cc1c(Br)cc(Br)c2c1C(=Cc1cc(Br)c(OCc3ccccc3)c(C(C)(C)C)c1)C(=O)N2` [10732/H08] it was 12.6%; in that of `COc1c(Cl)cc(C=C2C(=O)Nc3c(Br)cc(Br)c(C)c32)cc1C(C)(C)C` [10732/H09], 5.4%; in that of `Cc1c(Br)cc(Br)c2c1C(=Cc1cc(Cl)c(OCc3ccccc3)c(C(C)(C)C)c1)C(=O)N2` [10732/H10], 3.3%.
In the case of `COc1c(I)cc(C=C2C(=O)Nc3c(Br)cc(Br)c(C)c32)cc1C(C)(C)C` [10732/H11] it was 6.4%.
In the case of `Cc1c(Br)cc(Br)c2c1C(=Cc1cc(I)c(OCc3ccccc3)c(C(C)(C)C)c1)C(=O)N2` [10733/H02] it was −2.0%; in that of `COc1c([N+](=O)[O-])cc(C=C2C(=O)Nc3c(Br)cc(Br)c(C)c32)cc1C(C)(C)C` [10733/H03], 31.2%.
On to `COc1c(C(C)(C)C)cc(C=C2C(=O)Nc3c(Br)cc(Br)c(C)c32)cc1C(C)(C)C` [10733/H04], for which the “Flk Kinase % Inhibition (P.110)” value is reported as −8.5%.
In the case of `Cc1c(Br)cc(Br)c2c1C(=Cc1cc(C(C)(C)C)c(OCc3ccccc3)c(C(C)(C)C)c1)C(=O)N2` [10733/H05] it was 17.7%.
In the case of `COc1c(C)cc(C=C2C(=O)Nc3c(Br)cc(Br)c(C)c32)cc1C` [10733/H06] it was 30.0%.
In the case of `Cc1cc(C=C2C(=O)Nc3c(Br)cc(Br)c(C)c32)cc(C)c1OCc1ccccc1` [10733/H07] it was 7.6%; in that of `COc1cc(Br)cc(C=C2C(=O)Nc3c(Br)cc(Br)c(C)c32)c1O` [10733/H08], 4.8%; in that of `Cc1c(Br)cc(Br)c2c1C(=Cc1cc(Br)ccc1O)C(=O)N2` [10733/H09], 44.8%.
As for `Cc1c(Br)cc(Br)c2c1C(=Cc1cc([N+](=O)[O-])ccc1O)C(=O)N2` [10733/H10], the “Flk Kinase % Inhibition (P.110)” value is 12.6%.
For `COc1c(O)ccc(C=C2C(=O)Nc3c(Br)cc(Br)c(C)c32)c1[N+](=O)[O-]` [10733/H11], the “Flk Kinase % Inhibition (P.110)” value is reported as 29.1%.
